Test results published in US20140314904A1, “PRE-SLAUGHTER DIET INCLUDING METHIONINE” (ADISSEO FRANCE S.A.S., priority 2011, published 2014).

What was measured:
Type in all cases: in vivo, pig
pigs [1] = assay: Colour by Minolta L*a*b*, Example 2; settings: Laboratory, 2 days post mortem
Description: (§1) The pigs were slaughtered at a commercial slaughter house in Sweden after a resting time of 5 h. At 45 minutes post mortem, pH (Knick portamess 751) and temperature (digital thermometer, Weber) were measured in the M. longissiumus dorsi at the level of the 10th rib. At 48 h post mortem, the entire loins were dissected from the carcasses and transported to the University of Copenhagen for further measurements. Ultimate pH was measured, as well as colour by Minolta L*a*b*. Dry matter content was determined by drying muscle samples at 105° C. for 24 h. Slices of 3 cm thickness were cut, measured and vacuum packed before being stored for a further 7 days at 2° C. At the end of the storage period samples were heated to an internal temperature of 75° C. After being cooled down, samples were stored cold at 2° C. until they were cut into slabs of 1 cm×1 cm×2.5 cm size for shear force measurement. For each animal, 8 specimens were measured and the mean maximum load was used for further analysis.

slaughter pigs = assay: Storage loss of pork chops after display period; settings: 7 days at 2° C., 1.1% total methionine for 7 days before slaughter, LS mean ± SEM
Excerpt: Twenty-one slaughter pigs ([Yorkshire×Swedish Landrace]×Hampshire) were raised on a commercial diet. Pigs were randomly assigned to one of three groups (n=7). The groups represented three feeding strategies, namely a Control group which received a standardized diet comprising 0.27% total methionine, and both a DLM and HMTBA group, receiving the same diet as the Control group throughout the feeding period, apart from the fact that they were fed a higher level of methionine (1.1% total methionine) during a seven day finishing period immediately prior to slaughter. The supplements were given in two forms, either as D L-methionine (DLM) or DL-2-hydroxy-4-methylthiobutanoic acid (HMTBA).
Pigs were slaughtered at a commercial slaughter house in Sweden after a resting time of 5 hours. At 45 minutes post mortem, pH (Knick portamess 751 pH-meter with an Ingold LOT glass electrode, Tech Instrumentering ApS, Denmark) and temperature (digital thermometer, Weber, Stephen Nordic, Denmark) were measured in the m. Longissimus dorsi (LD) at the level of the 10th rib. At 48 hours post mortem, the entire back was dissected from the carcass and transported under controlled conditions to the University of Copenhagen for further measurements.
Pork chops were cut perpendicular to the long axis of each LD muscle. Six 3 cm thick pork chops was sliced from each LD. Three were vacuum packed and three were packed in a high-oxygen modified atmosphere. The chops were placed in plastic trays (M71-43A white/PS; 195×144×43 mm in dimension; Frch Plast, Denmark) and placed in vacuum bags (EM-628862; O2 transmission rate=40-50 cm^3/m^2/24 h/bar, CO2 transmission rate=150 cm^3/m^2/24 h/bar, water-vapour transmission rate=2.6 g/m^2/24 h; LogiCon Nordic A/S, Denmark). The ambient air was removed from all vacuum bags using a vacuum machine (type, manufacturer, country). The bags intended for […] were first filled with a gas mixture (80% oxygen/20% carbon dioxide) before being sealed completely, whereas the bags intended for MAP were only partially sealed. […] (until 9 days post mortem). The gas composition was checked (CheckMate 9900, PBI Dansensor, Denmark) before packaging and again prior to opening, at the end of the simulated display period in order to check for leakage. The oxygen-enriched environment was well maintained (83.4%) throughout the display period for all MA packages.
Storage loss was determined as the weight loss percentage at the end of the display period (9 days post mortem) relative to the weight at the day of packaging (two days post mortem). The cooking loss was determined as the weight loss percentage between the pork chops before and after cooking. The results are given as the mean of the three pork chops in each meat pack.

pigs [2] = assay: Dry matter content of muscle samples, Example 2; settings: Laboratory, 2 days post mortem
Description: as §1

SMILES	Colour Minolta L* (pigs [1]) [units]	Colour Minolta a* (pigs [1]) [units]	Colour Minolta b* (pigs [1]) [units]	Storage loss (slaughter pigs; MAP (80% O2 + 20% CO2))	Storage loss (slaughter pigs; Vacuum)	Dry Matter (pigs [2]) [%]
CSCCC(N)C(=O)O (racemic) [DLM, DL-methionine]	55.75	6.69	2.92	9.34 ± 0.83 ^A g	4.56 ± 0.89 ^B g	26
CSCCC(O)C(=O)O (racemic) [HMTBA, 2-hydroxy-4-(methylthio) butanoic acid]	56.89	7.58	3.71	6.37 ± 0.83 ^A, B g	4.63 ± 0.83 ^B g	29
